Experimental findings from ChEMBL document CHEMBL1153976, “Synthesis and cytotoxicity of 2-cyano-28-hydroxy-lup-1-en-3-ones” (Bioorg Med Chem Lett, 2009) are described below.

One experiment concerns A-375. The experiment can be described thus: Antiproliferative activity against human A375 cells after 72 hrs by MTS assay. The format is functional, cell-based. As to conditions: A-375, 72 h. For orientation: Tetrazolium assays rely on reduction of a dye to a coloured formazan, in cell work by metabolically active cells.
The subject of another experiment is MCF7. The experiment can be described thus: Antiproliferative activity against human MCF7 cells after 72 hrs by MTS assay. The class given is functional, cell-based. The conditions noted are these: MCF7, 72 h.
The next experiment relates to Daoy. Briefly: Antiproliferative activity against human DaOY cells after 72 hrs by MTS assay. The class given is cell-based.
A short description of experiment [1]: Antiproliferative activity against human LN229 cells after 72 hrs by MTS assay. The format is functional, cell-based. The conditions noted are these: LN-229, 72 h.
The next experiment relates to OVCAR-3. Briefly: Antiproliferative activity against human OVCAR-3 cells after 120 hrs by MTS assay. The format is functional, cell-based. As to conditions: OVCAR-3, 120 h.
The subject of the next experiment is HT-29. Briefly: Antiproliferative activity against human HT-29 cells after 72 hrs by MTS assay. The class given is functional, cell-based. As to conditions: HT-29, 72 h.
Experiment [2] deals with SK-MEL-2. The experiment can be described thus: Antiproliferative activity against human SK-MEL-2 cells after 72 hrs by MTS assay. As to conditions: SK-MEL-2, 72 h. The class given is functional, cell-based.
Experiment [3] deals with SK-MEL-2. Briefly: Induction of apoptosis in human SK-MEL-2 cells assessed as apoptotic cells at 50 uM after 8 hrs by annexin V assay. The format is functional.
Experiment [4] has as its system SK-MEL-2. The experiment can be described thus: Induction of apoptosis in human SK-MEL-2 cells assessed as necrotic cells at 50 uM after 8 hrs by annexin V assay in presence of z-VAD. The class given is functional.
In experiment [5] the test system is SK-MEL-2. Briefly: Induction of apoptosis in human SK-MEL-2 cells assessed as increase in caspase activation at 5 uM after 8 hrs by homogenous assay relative to control. The format is functional.
Experiment [6] has as its system SK-MEL-2. Briefly: Induction of apoptosis in human SK-MEL-2 cells assessed as increase in caspase activation at 50 uM after 8 hrs by homogenous assay relative to control. The class given is functional.
The subject of experiment [7] is SK-MEL-2. The experiment can be described thus: Induction of apoptosis in human SK-MEL-2 cells assessed as necrotic cells at 50 uM after 8 hrs by annexin V assay. The format is functional.
Experiment [8] deals with SK-MEL-2. Briefly: Induction of apoptosis in human SK-MEL-2 cells assessed as apoptotic cells at 50 uM after 8 hrs by annexin V assay in presence of z-VAD. The class given is functional.

For orientation: IC50 means the concentration that gives 50% inhibition. Lower therefore signals greater potency in that assay. In the case of `C=C(C)[C@@H]1CC[C@]2(C=O)CC[C@]3(C)[C@H](CC[C@@H]4[C@@]5(C)C=C(C#N)C(=O)C(C)(C)[C@@H]5CC[C@]43C)[C@@H]12`, the IC50 with A-375 is 7 µM; in the experiment on MCF7, above 75 µM; in the experiment with Daoy, 13 µM; in experiment [1], above 75 µM; in the experiment on OVCAR-3, above 75 µM; in the experiment with HT-29, 49 µM. Moreover, inhibition in the experiment with SK-MEL-2 [2] was half-maximal at 40 µM (IC50).
For the compound `CC(C)[C@@H]1CC[C@]2(CO)CC[C@]3(C)[C@H](CC[C@@H]4[C@@]5(C)Cc6cnoc6C(C)(C)[C@@H]5CC[C@]43C)[C@@H]12`, the IC50 in the experiment on A-375 is 10 µM; in the experiment on MCF7, above 75 µM; in the experiment on Daoy, 7 µM; in experiment [1] it was above 75 µM; in the experiment with OVCAR-3, 75 µM; in the experiment on HT-29, 75 µM. Also, in the experiment with SK-MEL-2 [2], half-maximal inhibition (IC50) required 8 µM.
`C=C(C)[C@@H]1CC[C@]2(CO)CC[C@]3(C)[C@H](CC[C@@H]4[C@@]5(C)CC(C#N)C(=O)C(C)(C)[C@@H]5CC[C@]43C)[C@@H]12` (some centres undefined): the IC50 is above 75 µM with A-375; 68 µM with MCF7; 44 µM in the experiment on Daoy; above 75 µM in [1]; above 75 µM with OVCAR-3; 72 µM in the experiment with HT-29. Further, half-maximal inhibition in the experiment with SK-MEL-2 [2] (IC50) required 42 µM.
Consider `C=C(C)[C@@H]1CC[C@]2(CO)CC[C@]3(C)[C@H](CC[C@@H]4[C@@]5(C)C=C(C#N)C(=O)C(C)(C)[C@@H]5CC[C@]43C)[C@@H]12`, for which the Activity with SK-MEL-2 [3] is given as 24%; in the experiment with SK-MEL-2 [4] it was 4%; in the experiment with SK-MEL-2 [7] it was 3%; in the experiment on SK-MEL-2 [8], 7%. Besides, the “fold change (FC)” value with SK-MEL-2 [5] is 2; in the experiment on SK-MEL-2 [6] it was 8. Besides, the IC50 was 6 µM in the experiment on A-375; 25 µM in the experiment with MCF7; 8 µM in the experiment on Daoy; 6 µM in experiment [1]; 7 µM with OVCAR-3; 8 µM with HT-29. The same compound showed an IC50 in the experiment with SK-MEL-2 [2] of 7 µM.
In the case of `CC(C)[C@@H]1CC[C@]2(C(=O)O)CC[C@]3(C)[C@H](CC[C@@H]4[C@@]5(C)C=C(C#N)C(=O)C(C)(C)[C@@H]5CC[C@]43C)[C@@H]12`, the IC50 in the experiment on A-375 was determined as 16 µM; with MCF7, 59 µM; with Daoy, 71 µM; in [1], 30 µM; in the experiment on OVCAR-3, 24 µM; in the experiment with HT-29, 18 µM. In the experiment on SK-MEL-2 [2], this compound returned a half-maximal inhibitory concentration (IC50) of 59 µM.
Turning to `C=C(C)[C@@H]1CC[C@]2(COC3CCCCO3)CC[C@]3(C)[C@H](CC[C@@H]4[C@@]5(C)CC(C#N)C(=O)C(C)(C)[C@@H]5CC[C@]43C)[C@@H]12` (some centres undefined), the IC50 in the experiment on A-375 is 38 µM; in the experiment with MCF7, 25 µM; with Daoy, 29 µM; in experiment [1], above 75 µM; in the experiment on OVCAR-3, above 75 µM; with HT-29 it was above 75 µM. Further, the IC50 in the experiment on SK-MEL-2 [2] came to 19 µM.
`CC(C)[C@@H]1CC[C@]2(COC3CCCCO3)CC[C@]3(C)[C@H](CC[C@@H]4[C@@]5(C)CC(C#N)C(=O)C(C)(C)[C@@H]5CC[C@]43C)[C@@H]12` (some centres undefined): the half-maximal inhibitory concentration (IC50) was 48 µM in the experiment with A-375; above 75 µM in the experiment on MCF7; 21 µM in the experiment with Daoy; 45 µM in [1]; above 75 µM in the experiment with HT-29; 25 µM in the experiment with SK-MEL-2 [2].
Turning to `C=C(C)[C@@H]1CC[C@]2(C(=O)O)CC[C@]3(C)[C@H](CC[C@@H]4[C@@]5(C)CC[C@H](O)C(C)(C)[C@@H]5CC[C@]43C)[C@@H]12` [BETULINIC ACID], the Activity in the experiment on SK-MEL-2 [5] is 70%. In addition, the IC50 was 51 µM with A-375; 50 µM in the experiment on MCF7; 31 µM in the experiment on Daoy; 61 µM in [1]; 59 µM in the experiment with OVCAR-3; 37 µM with HT-29. Besides, the IC50 in the experiment on SK-MEL-2 [2] was determined as 33 µM. Further, the “fold change (FC)” value in the experiment with SK-MEL-2 [6] was found to be 2.6.
Turning to `CC(C)[C@@H]1CC[C@]2(CO)CC[C@]3(C)[C@H](CC[C@@H]4[C@@]5(C)C=C(C#N)C(=O)C(C)(C)[C@@H]5CC[C@]43C)[C@@H]12`, the IC50 in the experiment with A-375 was 4 µM; in the experiment on MCF7, above 75 µM; in the experiment with Daoy, 9 µM; with OVCAR-3 it was 8 µM; with HT-29 it was 7 µM; in the experiment on SK-MEL-2 [2], 6 µM.
Turning to `C=C(C)[C@@H]1CC[C@]2(C(=O)O)CC[C@]3(C)[C@H](CC[C@@H]4[C@@]5(C)C=C(C#N)C(=O)C(C)(C)[C@@H]5CC[C@]43C)[C@@H]12`, the IC50 in the experiment on A-375 was above 75 µM; in the experiment on MCF7, above 75 µM; in the experiment with Daoy it was above 75 µM; in experiment [1] it was 18 µM; in the experiment with OVCAR-3 it was above 75 µM; with HT-29, 38 µM. Also, in the experiment with SK-MEL-2 [2], the IC50 is above 75 µM.
For the compound `C=C(C)[C@@H]1CC[C@]2(COC3CCCCO3)CC[C@]3(C)[C@H](CC[C@@H]4[C@@]5(C)C=C(C#N)C(=O)C(C)(C)[C@@H]5CC[C@]43C)[C@@H]12` (some centres undefined), the IC50 was 12 µM with A-375; above 75 µM in the experiment with MCF7; 14 µM in the experiment on Daoy; 21 µM in experiment [1]; above 75 µM in the experiment on OVCAR-3; above 75 µM in the experiment with HT-29. Further, the half-maximal inhibitory concentration (IC50) with SK-MEL-2 [2] stood at 23 µM.
Consider `C=C(C)[C@@H]1CC[C@]2(CO)CC[C@]3(C)[C@H](CC[C@@H]4[C@@]5(C)Cc6cnoc6C(C)(C)[C@@H]5CC[C@]43C)[C@@H]12`, for which the concentration for half-maximal inhibition (IC50) is 25 µM in the experiment on MCF7; 8 µM with Daoy; above 75 µM in experiment [1]; 60 µM in the experiment on OVCAR-3; 10 µM with HT-29; 8 µM in the experiment with SK-MEL-2 [2].
